Laboratory results reported in patent publication US20260078120A1, “SUBSTITUTED PYRIDOPYRIMIDINONES” (MIRATI THERAPEUTICS, INC., priority 2022, published 2026).
Like-named read-outs stand apart in the source and are kept apart here.

Key:
[1] = system: SKBR3 (PI3Kα wild type) cells; experiment: CellTiter-Glo 2.0 luminescent cell viability assay, 72 hours, SKBR3 cells; type: cell-based; settings: Homo sapiens, SK-BR-3, 72 h, SKBR3 (PI3Kα wild type) cells, CellTiter-Glo, approximately 72 hours; read-out: SKBR3 (WT) Viability IC50
Outline: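 Viability measured via CTG luminescence following roughly 72 hours of compound exposure at 37° C. Dosing used a 10 um starting concentration diluted 1:4 over 10 points; percent-of-vehicle data fitted with a variable-slope four-parameter model for IC50.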

[2] = system: T47D (PI3Kα H1047R mutant) cells; experiment: CellTiter-Glo 2.0 luminescent cell viability assay, 72 hours, T47D cells; type: cell-based; settings: T47D (PI3Kα H1047R mutant) cells, CellTiter-Glo, approximately 72 hours, read-out: T47D (H1047R mutant) Viability IC50
Outline: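 Viability was measured by CellTiter-Glo 2.0 luminescence after approximately 72 h of compound exposure at 37° C. Plating was 1000 cells per well the day before dosing, with ten 1:4 dilutions from a 10 µM top concentration. Values as percent of vehicle were fitted by variable-slope log(inhibitor) regression to give IC50.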

IC50 [1] | IC50 ([2]; Homo sapiens, T47D, 72 h) | IC50 [2] | SMILES
> 10 µM | 0.313 µM | – | Cc1cc([C@@H](C)Nc2ccccc2C(=O)O)c2nc(NCC(C)C)c(C)c(=O)n2c1 [Example 11-309, (R)-2-((1-(2-(isobutylamino)-3,7-dimethyl-4-oxo-4H-pyrido[1,2-a]pyrimidin-9-yl)ethyl)amino)benzoic acid]
> 10 µM | > 10 µM | – | CC(=O)N1CCN(c2cc(=O)n3cc(C)cc(C(C)Nc4ccccc4C(=O)O)c3n2)CC1 (stereo not shown) [Example 11-337, 2-((1-(2-(4-acetylpiperazin-1-yl)-7-methyl-4-oxo-4H-pyrido[1,2-a]pyrimidin-9-yl)ethyl)amino)benzoic acid]
> 10 µM | 0.241 µM | – | Cc1cc([C@@H](C)Nc2ccccc2C(=O)O)c2nc(N3CCN(c4cccc(C(F)(F)F)c4)CC3)c(C)c(=O)n2c1 [Example 11-439, (R)-2-((1-(3,7-dimethyl-4-oxo-2-(4-(3-(trifluoromethyl)phenyl)piperazin-1-yl)-4H-pyrido[1,2-a]pyrimidin-9-yl)ethyl)amino)benzoic acid]
> 10 µM | 0.362 µM | – | Cc1cc([C@@H](C)Nc2ccccc2C(=O)O)c2nc(N3CCN(c4ccccc4)CC3C)c(C)c(=O)n2c1 (stereo partly drawn) [Example 11-268, 2-(((1R)-1-(3,7-dimethyl-2-(2-methyl-4-phenylpiperazin-1-yl)-4-oxo-4H-pyrido[1,2-a]pyrimidin-9-yl)ethyl)amino)benzoic acid]
> 10 µM | > 10 µM | – | Cc1cc([C@H](C)Nc2ccccc2C(=O)O)c2nc([C@@H]3CCN(C)C(=O)C3)cc(=O)n2c1 [Example 11-375, 2-(((S)-1-(7-methyl-2-((R)-1-methyl-2-oxopiperidin-4-yl)-4-oxo-4H-pyrido[1,2-a]pyrimidin-9-yl)ethyl)amino)benzoic acid]
> 10 µM | 0.239 µM | – | Cc1cc([C@@H](C)Nc2ccccc2C(=O)O)c2nc(N3CC(c4cccnc4)C3)c(C)c(=O)n2c1 [Example 11-21, (R)-2-((1-(3,7-dimethyl-4-oxo-2-(3-(pyridin-3-yl)azetidin-1-yl)-4H-pyrido[1,2-a]pyrimidin-9-yl)ethyl)amino)benzoic acid]
> 10 µM | 1.11 µM | – | Cc1cc([C@@H](C)Nc2ccccc2C(=O)O)c2nc(N3CC4(CN(c5ccc(C#N)cc5)C4)C3)c(C#N)c(=O)n2c1 [Example 11-190, (R)-2-((1-(3-cyano-2-(6-(4-cyanophenyl)-2,6-diazaspiro[3.3]heptan-2-yl)-7-methyl-4-oxo-4H-pyrido[1,2-a]pyrimidin-9-yl)ethyl)amino)benzoic acid]
> 10 µM | 0.39 µM | – | [2H]C12CC(C3CCN(c4nc5c([C@@H](C)Nc6ccccc6C(=O)O)cc(C)cn5c(=O)c4C)CC3)(C1)C2 [Example 11-36, (R)-2-((1-(2-(4-(bicyclo[1.1.1]pentan-1-yl-3-d)piperidin-1-yl)-3,7-dimethyl-4-oxo-4H-pyrido[1,2-a]pyrimidin-9-yl)ethyl)amino)benzoic acid]
> 10 µM | 0.347 µM | – | Cc1cc([C@@H](C)Nc2ccccc2C(=O)O)c2nc(N3CCN(C4CC4)CC3)c(C)c(=O)n2c1 [Example 11-151, (R)-2-((1-(2-(4-cyclopropylpiperazin-1-yl)-3,7-dimethyl-4-oxo-4H-pyrido[1,2-a]pyrimidin-9-yl)ethyl)amino)benzoic acid]
> 10 µM | – | 0.0469 µM | Cc1cc([C@@H](C)Nc2ccccc2C(=O)O)c2nc(N3CCC4(CCOC4)CC3)c(C)c(=O)n2c1 [Example 10-130, (R)-2-((1-(3,7-dimethyl-4-oxo-2-(2-oxa-8-azaspiro[4.5]decan-8-yl)-4H-pyrido[1,2-a]pyrimidin-9-yl)ethyl)amino)benzoic acid]
> 10 µM | 2.52 µM | – | Cc1cc([C@@H](C)Nc2ccccc2C(=O)O)c2nc(N3CCC(c4cc[nH]n4)CC3)c(C#N)c(=O)n2c1 [Example 11-53, (R)-2-((1-(2-(4-(1H-pyrazol-3-yl)piperidin-1-yl)-3-cyano-7-methyl-4-oxo-4H-pyrido[1,2-a]pyrimidin-9-yl)ethyl)amino)benzoic acid]

Continued, compound first:

SMILES | IC50 [1] | IC50 ([2]; Homo sapiens, T47D, 72 h) | IC50 [2]
Cc1cc([C@@H](C)Nc2ccccc2C(=O)O)c2nc(N3CCC(N4CCC(F)(F)CC4)CC3)c(C)c(=O)n2c1 [Example 11-23, (R)-2-((1-(2-(4,4-difluoro-[1,4′-bipiperidin]-1′-yl)-3,7-dimethyl-4-oxo-4H-pyrido[1,2-a]pyrimidin-9-yl)ethyl)amino)benzoic acid] | > 10 µM | 0.139 µM | –
Cc1cc([C@@H](C)Nc2ccc(Cl)nc2C(=O)O)c2nc(N3CCCCC3)c(C)c(=O)n2c1 [Example 11-358, (R)-6-chloro-3-((1-(3,7-dimethyl-4-oxo-2-(piperidin-1-yl)-4H-pyrido[1,2-a]pyrimidin-9-yl)ethyl)amino)picolinic acid] | 6.21 µM | 1.27 µM | –
C[C@@H](Nc1ccccc1C(=O)O)c1cc(C#N)cn2c(=O)cc(N3CCC(F)(F)CC3)nc12 [Example 11-418, (R)-2-((1-(7-cyano-2-(4,4-difluoropiperidin-1-yl)-4-oxo-4H-pyrido[1,2-a]pyrimidin-9-yl)ethyl)amino)benzoic acid] | > 10 µM | > 10 µM | –
Cc1cc([C@@H](C)Nc2ccccc2C(=O)O)c2nc(N3CCC(F)(F)[C@H](C)C3)c(C#N)c(=O)n2c1 [Example 11-64, 2-(((R)-1-(3-cyano-2-((R)-4,4-difluoro-3-methylpiperidin-1-yl)-7-methyl-4-oxo-4H-pyrido[1,2-a]pyrimidin-9-yl)ethyl)amino)benzoic acid] | > 10 µM | 0.131 µM | –
Cc1cc([C@@H](C)Nc2ccc(F)nc2C(=O)O)c2nc(N3CCC(F)(F)CC3)c(C#N)c(=O)n2c1 [Example 11-44, (R)-3-((1-(3-cyano-2-(4,4-difluoropiperidin-1-yl)-7-methyl-4-oxo-4H-pyrido[1,2-a]pyrimidin-9-yl)ethyl)amino)-6-fluoropicolinic acid] | > 10 µM | 9.55 µM | –
Cc1cc([C@@H](C)Nc2ccccc2C(=O)O)c2nc(NCC(C)C(F)(F)F)c(C#N)c(=O)n2c1 (stereo partly drawn) [Example 11-49, 2-(((1R)-1-(3-cyano-7-methyl-4-oxo-2-((3,3,3-trifluoro-2-methylpropyl)amino)-4H-pyrido[1,2-a]pyrimidin-9-yl)ethyl)amino)benzoic acid] | > 10 µM | 0.204 µM | –
Cc1cc([C@@H](C)Nc2ccccc2C(=O)O)c2nc(N3CCN(c4ccc(C(N)=O)cc4)CC3)c(C)c(=O)n2c1 [Example 11-250, (R)-2-((1-(2-(4-(4-carbamoylphenyl)piperazin-1-yl)-3,7-dimethyl-4-oxo-4H-pyrido[1,2-a]pyrimidin-9-yl)ethyl)amino)benzoic acid] | > 10 µM | 0.482 µM | –
C[C@@H](Nc1ccccc1C(=O)O)c1cc(C2CC2)cn2c(=O)c(C#N)c(N3Cc4ccccc4C3)nc12 [Example 11-326, (R)-2-((1-(3-cyano-7-cyclopropyl-2-(isoindolin-2-yl)-4-oxo-4H-pyrido[1,2-a]pyrimidin-9-yl)ethyl)amino)benzoic acid] | 3.96 µM | 2.58 µM | –
Cc1cc([C@@H](C)Nc2ccccc2C(=O)O)c2nc(N3CCC(C(F)(F)F)CC3)c(C)c(=O)n2c1 [Example 11-71, (R)-2-((1-(3,7-dimethyl-4-oxo-2-(4-(trifluoromethyl)piperidin-1-yl)-4H-pyrido[1,2-a]pyrimidin-9-yl)ethyl)amino)benzoic acid] | > 10 µM | 0.387 µM | –
Cc1cc([C@@H](C)Nc2ccccc2C(=O)O)c2nc(Cl)c(C)c(=O)n2c1 [Example 11-242, (R)-2-((1-(2-chloro-3,7-dimethyl-4-oxo-4H-pyrido[1,2-a]pyrimidin-9-yl)ethyl)amino)benzoic acid] | > 10 µM | > 10 µM | –
Cc1cc(C(C)Nc2ccc(Cl)nc2C(=O)O)c2nc(N3Cc4ccccc4C3)c(C)c(=O)n2c1 (stereo not shown) [Example 11-361] | 8.79 µM | 0.277 µM | –
CC(=O)N1CCC(c2nc3c([C@@H](C)Nc4ccccc4C(=O)O)cc(C)cn3c(=O)c2C#N)CC1 [Example 11-256, (R)-2-((1-(2-(1-acetylpiperidin-4-yl)-3-cyano-7-methyl-4-oxo-4H-pyrido[1,2-a]pyrimidin-9-yl)ethyl)amino)benzoic acid] | > 10 µM | 0.511 µM | –
Cc1c(N2Cc3ccccc3C2)nc2c([C@@H](C)Nc3ccccc3C(=O)O)cc(Cl)cn2c1=O [Example 11-291, (R)-2-((1-(7-chloro-2-(isoindolin-2-yl)-3-methyl-4-oxo-4H-pyrido[1,2-a]pyrimidin-9-yl)ethyl)amino)benzoic acid] | > 10 µM | 0.117 µM | –
Cc1cc([C@@H](C)Nc2ccccc2C(=O)O)c2nc(N3CC4(C3)CC4(F)F)c(C)c(=O)n2c1 [Example 11-103, (R)-2-((1-(2-(1,1-difluoro-5-azaspiro[2.3]hexan-5-yl)-3,7-dimethyl-4-oxo-4H-pyrido[1,2-a]pyrimidin-9-yl)ethyl)amino)benzoic acid] | > 10 µM | 0.475 µM | –
Cc1cc([C@@H](C)Nc2ccccc2C(=O)O)c2nc(N3C[C@@H]4[C@H](C3)[C@H]4C(F)(F)F)c(C)c(=O)n2c1 [Example 11-445, 2-(((R)-1-(3,7-dimethyl-4-oxo-2-((1R,5S,6R)-6-(trifluoromethyl)-3-azabicyclo[3.1.0]hexan-3-yl)-4H-pyrido[1,2-a]pyrimidin-9-yl)ethyl)amino)benzoic acid] | > 10 µM | 0.287 µM | –
